Patent publication US5292737A, “N,N'-bis(sulfonamido)-2-amino-4-iminonaphthalen-1-ones and N,N'-bis(amido)-2-amino-4-iminonaphthalen-1-ones” (Sphinx Pharmaceuticals Corporation, priority 1992, dated 1994)

Legend:
human neutrophils = assay: Neutrophil Superoxide Anion (O2) Release Assay, PMA-stimulated; type: cell-based; settings: PMA-stimulated human neutrophils; read-out: Neutrophil Superoxide Release IC50
Text: Phorbol-12,13-myristate acetate (PMA) stimulates O2 production in human neutrophils which in turn reduces cytochrome C. Reducing cytochrome C increases absorbance and the change in optical density (OD) is proportional to the amount of O2 produced by PMA stimulation. Inhibition is expressed as an IC50 value and is the amount of test compound that will inhibit fifty percent of the PMA-stimulated respiratory outburst, i.e. O2^31 production (Lherer et al. (1981) J. Clinical lnvest. 68:1314; Roberts et al. (1982) J. Immunological Methods 49:193).
Human donor blood in 0.38% Sodium Citrate was centrifuged for 10 minutes at 160 ×g at room temperature. Platelet-rich plasma was removed leaving the buffy coat and the red cell-enriched fraction. Saline with 0.38% Sodium Citrate was added to this fraction up to the original blood volume. The enriched blood sample was diluted 1:1 (v:v) with 3% dextran T500 (Pharmacia) in normal saline and placed in a 60 cc syringe, inverted over a beaker and allowed to settle 30 minutes at room temperature.
Leukocyte-enriched plasma was removed from the syringe, placed into 50 ml polypropylene conical centrifuge tubes and underlaid with 15-20 ml Lymphocyte Separation Medium (LSM Organon Technica). The tubes were centrifuged for 40 minutes at 500×g at room temperature. The plasma, buffy coat and LSM were aspirated off the pellets which contained red blood cells and neutrophils.
The pellets were vortexed and 10 ml ice-cold 0.2% NaCl was added to lyse the red blood cells while vortexing again for 10 seconds. Ice-cold 1.6% NaCl was added while vortexing for 10 seconds. The cells were combined from multiple tubes, centrifuged 10 min at 400×g at 4° C. This red cell lysis was repeated and the resulting neutrophil pellet was washed once in Reaction HBSS (GIBCO, HBSS with Ca^++ and Mg^++,.238% HEPES, 0.1% dextrose, 0.1% RIA grade bovine serum albumin, PH 7.2). The cells were resuspended in 1/5 the original blood volume with Reaction HBSS, counted and adjusted to 4.0×10^6 cells/ml at 4° C.
Duplicate samples of neutrophils were tested in 12×75 mm polypropylene tubes containing 0.25 ml of the neutrophil suspension. Cytochrome C mix (0.25 ml, 6.0 mg/ml cytochrome C type IV (Sigma) plus 1200 U/ml bovine liver catalase (Sigma) in Reaction HBSS described above) was added. PMA was added at 2×the final concentration in 0.5 ml of Reaction HBSS. PMA final test concentration were 0.0, 0.3, 9.0, 27.0, and 81.0 ng/ml. The tubes were vortexed and incubated for 10 minutes at 37° C. with shaking. After chilling for 5 minutes at 4° C. and centrifuging for 10 minutes at 4° C., 550×g, 0.5 ml of supernatant was removed from each tube. Normal saline (0.5 ml) was added to each 0.5 ml sample of supernatant and the absorbance of each sample was read at 550 nm on a spectrophotometer (Shimadzu). The PMA concentration which gives nearly maximal stimulation of superoxide release was determined.
The test samples of neutrophils were prepared as in the PMA dose response through addition of cytochrome C mix. Then 0.4 ml of Reaction HBSS as a control or test agent at 2.5×final test concentration was added and the tubes were vortexed and incubated for 30 minutes at 37° C. with shaking. PMA (0.1 ml) was added at a 10× concentration of the final concentration determined above. The samples were incubated for 10 minutes at 37° C. with shaking, chilled for 5 minutes at 4° C., and then centrifuged for 5 minutes at 550×g at 4° C. The supernatant (0.5 ml) was diluted with 0.5 ml normal saline as above and the absorbance was then determined at 550 nm. The percent change was calculated as follows: [formula] D-sphingosine (Sigma) used as reference standard.
Human neutrophils were first isolated according to Lherer et al. ((1981) J. Clinical Invest. 68:1314) and then tested for stimulation of superoxide anion release with phorbol--12,13-myristate acetate (PMA) in a dose-dependent manner. […]

PKC isoenzyme α = target: T1, PKC isoenzyme α (Homo sapiens, UniProt P17252); assay: Protein kinase C inhibition assay, PKC isoenzyme α; type: biochemical; settings: read-out: IC50 PKC α
T1 construct: made in house; host or cells: baculovirus-insect cell expression system
Procedure, shortened: (§1)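 Inhibition is measured as the compound concentration halving phosphate transfer to histone H1 or myelin basic protein by baculovirus-expressed enzyme. Assays use near-physiologic conditions with sub-saturating phosphatidylserine/DAG vesicles, compound at four concentrations up to 150 μM, and a 10 min reaction terminated by trichloroacetic acid before filter counting.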

PKC isoenzyme γ = target: T2, PKC isoenzyme γ (Homo sapiens, UniProt P05129); assay: Protein kinase C inhibition assay, PKC isoenzyme γ; type: biochemical; settings: read-out: IC50 PKC γ
T2 construct: made in house; host or cells: baculovirus-insect cell expression system
Procedure, shortened: as §1

[1] = target: cAMP dependent protein kinase (PKA); assay: cAMP Dependent Protein Kinase (PKA) Assay; type: biochemical; settings: for IC50: catalytic subunit of PKA; for effect on PKA activity: result in words
Procedure, shortened: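 PKA catalytic subunit preincubated with test compound added from DMSO at final 30 and 150 μM; reaction started with ^32P-ATP, run 10 min, stopped with 25% TCA plus BSA. Phosphorylated protein collected by filtration and counted by beta scintillation.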

Compound	IC50 (human neutrophils) [nM]	IC50 (PKC isoenzyme α) [µM]	IC50 (PKC isoenzyme γ) [µM]	IC50 [1] [µM]	effect on PKA activity [1]
O=C1C(Nc2ccc(S(=O)(=O)NCc3ccccn3)cc2)=CC(=Nc2ccc(S(=O)(=O)NCc3ccccn3)cc2)c2ccccc21 [Compound 3n]	220	75	24	> 150	did not effect on PKA activity
Cc1cc(C)nc(NS(=O)(=O)c2cc(N=C3C=C(Nc4ccc(C)c(S(=O)(=O)Nc5cc(C)cc(C)n5)c4)C(=O)c4ccccc43)ccc2C)c1 [Compound 6ag]	60	22	16	–	did not effect on PKA activity
Cc1cc(C)nc(NS(=O)(=O)c2ccc(N=C3C=C(Nc4ccc(S(=O)(=O)Nc5nc(C)cc(C)n5)cc4)C(=O)c4ccccc43)cc2)n1 [Compound 6c]	1880	7	7	48	–
Cc1cc(NS(=O)(=O)c2ccc(N=C3C=C(Nc4ccc(S(=O)(=O)Nc5cc(C)nc(C)n5)cc4)C(=O)c4ccccc43)cc2)nc(C)n1 [Compound 6d]	6470	41	24	> 150	did not effect on PKA activity
Cc1nnc(NS(=O)(=O)c2ccc(N=C3C=C(Nc4ccc(S(=O)(=O)Nc5nnc(C)s5)cc4)C(=O)c4ccccc43)cc2)s1 [Compound 6e]	4780	109	12	45	–
Cc1ccnc(NS(=O)(=O)c2ccc(N=C3C=C(Nc4ccc(S(=O)(=O)Nc5nccc(C)n5)cc4)C(=O)c4ccccc43)cc2)n1 [Compound 6f]	2110	24	18	46	–
COc1cc(NS(=O)(=O)c2ccc(N=C3C=C(Nc4ccc(S(=O)(=O)Nc5cc(OC)nc(OC)n5)cc4)C(=O)c4ccccc43)cc2)nc(OC)n1 [Compound 6g]	1340	61	20	47	–
COc1cnc(NS(=O)(=O)c2ccc(N=C3C=C(Nc4ccc(S(=O)(=O)Nc5ncc(OC)cn5)cc4)C(=O)c4ccccc43)cc2)nc1 [Compound 6h]	2400	108	41	> 150	did not effect on PKA activity
O=C1C(Nc2ccc(S(=O)(=O)Nc3ccccn3)cc2)=CC(=Nc2ccc(S(=O)(=O)Nc3ccccn3)cc2)c2ccccc21 [Compound 6i]	110	14	10	> 150	did not effect on PKA activity
COc1ccc(NS(=O)(=O)c2ccc(N=C3C=C(Nc4ccc(S(=O)(=O)Nc5ccc(OC)nn5)cc4)C(=O)c4ccccc43)cc2)nn1 [Compound 6j]	3330	106	30	> 150	did not effect on PKA activity
O=C1C(Nc2ccc(S(=O)(=O)Nc3ccc(Cl)nn3)cc2)=CC(=Nc2ccc(S(=O)(=O)Nc3ccc(Cl)nn3)cc2)c2ccccc21 [Compound 6l]	5230	44	9	89	–
O=C1C(Nc2ccc(S(=O)(=O)Nc3cnc4ccccc4n3)cc2)=CC(=Nc2ccc(S(=O)(=O)Nc3cnc4ccccc4n3)cc2)c2ccccc21 [Compound 6m]	1390	9	10	145	–
O=C1C(Nc2ccc(S(=O)(=O)NCc3ccccn3)cc2)=CC(=Nc2ccc(S(=O)(=O)NCc3ccccn3)cc2)c2ccccc21 [Compound 6n]	100	134	44	> 150	did not effect on PKA activity
